# Data from patent US20220125903A1, “METHODS FOR IMPROVING THE EFFICACY OF A SURVIVIN THERAPEUTIC IN THE TREATMENT OF TUMORS” (IMMUNOVACCINE TECHNOLOGIES INC., priority 2018, published 2022).
# Marks after values point to notes of the source that are not given here.
# Assays:
# [1] = test system: recurrent ovarian cancer; assay: Phase 1b study: DPX-Survivac with low dose cyclophosphamide and epacadostat, tumor response by modified RECIST 1.1; type: in vivo, human; conditions: for CR (complete response), number of subjects / DCR (CR + PR + SD), disease control rate / DCR (CR + PR + SD), number of subjects / ORR (overall response rate), % of subjects / ORR (overall response rate), number of subjects / PR (partial response), % of subjects / PR (partial response), number of subjects / Partial response, % of subjects / Partial response, subjects/N / Progressive disease, % of subjects / Progressive disease, subjects/N / Stable disease, % of subjects / Stable disease, subjects/N / Tumor regressions, % of subjects / Tumor regressions, subjects/N / PD (progressive disease), % of subjects / PD (progressive disease), subjects/N / PR (partial response), subjects/N: with DPX-Survivac + low dose CPA
# [2] = test system: survivin; assay: Cell mediated immunity: survivin-specific T cell response by ELISpot (Phase 1b); type: in vivo, human; conditions: with DPX-Survivac + low dose CPA
# Description: Cell Mediated Immunity was determined by immunogenicity analysis and describe as the percentage of subjects with a positive immune response to one or more epitopes in the T cell activation therapeutic as well as changes in immune cell infiltration to the tumor. For ELISpot, antigen-specific response rate greater than Mean+2SD (typically>64 SFU/106 PBMC) obtained from pre-treatment and/or unstimulated/background cells was considered a positive response. Further, based on the magnitude of ELISpot response following treatment, subjects were classified as low (>64 to <512 SFU/106 PBMC) or high (>512 SFU/106 PBMC) immune responders to treatment or described as having a high and sustained immune response (3 separate time points >512 SFU/106 PBMC).
# [3] = all epacadostat doses (N = 15), total target lesion size < 5 cm
# [4] = all epacadostat doses (N = 38), total target lesion size ≥ 5 cm
# [5] = epacadostat 100 mg (N = 5), sum of target lesion at baseline <5 cm
# [6] = epacadostat 100 mg (N = 14), all subjects
# [7] = epacadostat 100 mg BID (N = 5), total target lesion size < 5 cm
# [8] = epacadostat 100 mg BID (N = 9), total target lesion size ≥ 5 cm
# [9] = epacadostat 100 mg and 300 mg, Total (N = 53)
# [10] = epacadostat 300 mg (N = 10), sum of target lesion at baseline <5 cm, partially monitored data
# [11] = epacadostat 300 mg (N = 39), all subjects, partially monitored data
# [12] = epacadostat 300 mg BID (N = 10), total target lesion size < 5 cm
# [13] = epacadostat 300 mg BID (N = 29), total target lesion size ≥ 5 cm
# [14] = epacadostat Total (N = 15), sum of target lesion at baseline <5 cm
smiles,measurement,setting,value
NS(=O)(=O)NCCNc1nonc1/C(=N\c1ccc(F)c(Br)c1)NO [Epacadostat],dose related activity of epacadostat,"[1]; preliminary analysis, 100 mg vs 300 mg combined with DPX-Survivac and low dose CPA",absence of dose related activity
same,"CR (complete response), number of subjects",[1]; [3],0
same,"DCR (CR + PR + SD), disease control rate",[1]; [3],(66.7%)
same,"DCR (CR + PR + SD), number of subjects",[1]; [3],10
same,"ORR (overall response rate), % of subjects",[1]; [3],(26.7%)
same,"ORR (overall response rate), number of subjects",[1]; [3],4
same,"PR (partial response), % of subjects",[1]; [3],(26.7%)
same,"PR (partial response), number of subjects",[1]; [3],4
same,"CR (complete response), number of subjects",[1]; [4],0
same,"DCR (CR + PR + SD), disease control rate",[1]; [4],(39.5%)
same,"DCR (CR + PR + SD), number of subjects",[1]; [4],15
same,"ORR (overall response rate), % of subjects",[1]; [4],(2.6%)
same,"ORR (overall response rate), number of subjects",[1]; [4],1
same,"PR (partial response), % of subjects",[1]; [4],(2.6%)
same,"PR (partial response), number of subjects",[1]; [4],1
same,"Partial response, % of subjects",[1]; [5],(60.0%)
same,"Partial response, subjects/N",[1]; [5],3/5
same,"Progressive disease, % of subjects",[1]; [5],(0%)
same,"Progressive disease, subjects/N",[1]; [5],0/5
same,"Stable disease, % of subjects",[1]; [5],(40.0%)
same,"Stable disease, subjects/N",[1]; [5],2/5
same,"Tumor regressions, % of subjects",[1]; [5],(100%)
same,"Tumor regressions, subjects/N",[1]; [5],5/5
same,"PD (progressive disease), % of subjects",[1]; [6],(35.7%)
same,"PD (progressive disease), subjects/N",[1]; [6],5/14
same,"PR (partial response), % of subjects",[1]; [6],(21.4%)
same,"PR (partial response), subjects/N",[1]; [6],3/14
same,"Tumor regressions, % of subjects",[1]; [6],(35.7%)
same,"Tumor regressions, subjects/N",[1]; [6],5/14
same,"CR (complete response), number of subjects",[1]; [7],0
same,"DCR (CR + PR + SD), disease control rate",[1]; [7],(100%)
same,"DCR (CR + PR + SD), number of subjects",[1]; [7],5
same,"ORR (overall response rate), % of subjects",[1]; [7],(60%)
same,"ORR (overall response rate), number of subjects",[1]; [7],3
same,"PR (partial response), % of subjects",[1]; [7],(60.0%)
same,"PR (partial response), number of subjects",[1]; [7],3
same,"CR (complete response), number of subjects",[1]; [8],0
same,"DCR (CR + PR + SD), disease control rate",[1]; [8],(33.3%)
same,"DCR (CR + PR + SD), number of subjects",[1]; [8],3
same,"ORR (overall response rate), number of subjects",[1]; [8],0
same,"PR (partial response), number of subjects",[1]; [8],0
same,"PD (progressive disease), % of subjects",[1]; [9],(34.0%)
same,"PD (progressive disease), subjects/N",[1]; [9],18/53
same,"PR (partial response), % of subjects",[1]; [9],(9.4%)
same,"PR (partial response), subjects/N",[1]; [9],5/53
same,"Tumor regressions, % of subjects",[1]; [9],(20.1%)
same,"Tumor regressions, subjects/N",[1]; [9],11/53
same,"Partial response, % of subjects",[1]; [10],(10.0%)
same,"Partial response, subjects/N",[1]; [10],1/10
same,"Progressive disease, % of subjects",[1]; [10],(50.0%)
same,"Progressive disease, subjects/N",[1]; [10],5/10
same,"Stable disease, % of subjects",[1]; [10],(40.0%)
same,"Stable disease, subjects/N",[1]; [10],4/10
same,"Tumor regressions, % of subjects",[1]; [10],(30.0%)
same,"Tumor regressions, subjects/N",[1]; [10],3/10
same,"PD (progressive disease), % of subjects",[1]; [11],(33.3%)
same,"PD (progressive disease), subjects/N",[1]; [11],13/39
same,"PR (partial response), % of subjects",[1]; [11],(5.1%)
same,"PR (partial response), subjects/N",[1]; [11],2/39
same,"Tumor regressions, % of subjects",[1]; [11],(15.4%)
same,"Tumor regressions, subjects/N",[1]; [11],6/39
same,"CR (complete response), number of subjects",[1]; [12],0
same,"DCR (CR + PR + SD), disease control rate",[1]; [12],(50.0%)
same,"DCR (CR + PR + SD), number of subjects",[1]; [12],5
same,"ORR (overall response rate), % of subjects",[1]; [12],(10.0%)
same,"ORR (overall response rate), number of subjects",[1]; [12],1
same,"PR (partial response), % of subjects",[1]; [12],(10.0%)
same,"PR (partial response), number of subjects",[1]; [12],1
same,"CR (complete response), number of subjects",[1]; [13],0
same,"DCR (CR + PR + SD), disease control rate",[1]; [13],(41.4%)
same,"DCR (CR + PR + SD), number of subjects",[1]; [13],12
same,"ORR (overall response rate), % of subjects",[1]; [13],(3.4%)
same,"ORR (overall response rate), number of subjects",[1]; [13],1
same,"PR (partial response), % of subjects",[1]; [13],(3.4%)
same,"PR (partial response), number of subjects",[1]; [13],1
same,"Partial response, % of subjects",[1]; [14],(26.7%)
same,"Partial response, subjects/N",[1]; [14],4/15
same,"Progressive disease, % of subjects",[1]; [14],(33.3%)
same,"Progressive disease, subjects/N",[1]; [14],5/15
same,"Stable disease, % of subjects",[1]; [14],(33.3%)
same,"Stable disease, subjects/N",[1]; [14],5/15
same,"Tumor regressions, % of subjects",[1]; [14],(53.3%)
same,"Tumor regressions, subjects/N",[1]; [14],8/15
same,"Positive T cell response (survivin), % of subjects",[2]; [5],(100%)
same,"Positive T cell response (survivin), subjects/evaluable",[2]; [5],4/4
same,"Positive T cell response (survivin), % of subjects",[2]; [6],(100%)
same,"Positive T cell response (survivin), subjects/evaluable",[2]; [6],11/11
same,"Positive T cell response (survivin), % of subjects",[2]; [9],(81.5%)
same,"Positive T cell response (survivin), subjects/evaluable",[2]; [9],22/27
same,"Positive T cell response (survivin), % of subjects",[2]; [10],(25%)^a
same,"Positive T cell response (survivin), subjects/evaluable",[2]; [10],1/4
same,"Positive T cell response (survivin), % of subjects",[2]; [11],(56.3%)^b
same,"Positive T cell response (survivin), subjects/evaluable",[2]; [11],9/16
